Bounds are passed on as bounds.

What all share (format): biochemical
The subject of experiment [1] is epoxide hydrolase from Agrobacterium radiobacter AD1, wild type, SEQ ID No. 1. In words: Stereoselective hydrolysis (kinetic resolution) of styrene oxides, comparative experiment with wild type enzyme. Particulars: substrate 5 mM, Tris buffer 50 mM pH9, 30°C, 10% DMSO for meta- and para-chlorostyrene oxide, chiral GLC. How it is done: (§1) A screw-cap bottle containing 30 ml Tris buffer^1 (50 mM pH9) was incubated in a shaking waterbath at 30°C. Styrene oxides (SO) as indicated in table 3 were added to a final concentration of 5 mM. The reaction was started by the addition of the a purified enzyme solution of the Tyr215Phe mutant of the epoxide hydrolase from Agrobacterium radiobacter AD1. The kinetic resolution was monitored by periodically taking 1 ml samples (with a 1 ml syringe) from the closed screw-cap bottle. The samples were extracted with diethylether containing 20 mM mesitylene as an internal standard. Prior to analysis by chiral GLC the water was removed from the sample by passing it through a short column containing MgSO4. The enantiomeric excess (%ee) and the yield of the epoxides was determined with a Hewlett-Packard 5890 gas chromatograph equipped with a FID-detector, using a Chiraldex G-TA capillary column, of 50 m lenght and 0.25 mm inside diameter. The data from the chiral GLC are as follows: • styrene oxide, tr(S)=12.4 min and tr(R)=14.8 min at 110°C; • meta-chlorostyrene oxide, tr(S)=20.2 min and tr(R)= 31.1 min at 120°C; • para-chlorostyrene oxide, tr(S)=40.7 min and tr(R)= 43.0 min at 100°C. ^1 In case of meta-chlorostyrene oxide and para-chlorostyrene oxide the buffer also contained 10% DMSO
Example III was repeated using the corresponding wild type epoxide hydrolase for Agrobacterium radiobacter AD1.

The test system of experiment [2] is epoxide hydrolase from Agrobacterium radiobacter AD1, Tyr215Phe mutant. In words: Stereoselective hydrolysis (kinetic resolution) of styrene oxides with Tyr215Phe mutant. Particulars: substrate 5 mM, Tris buffer 50 mM pH9, 30°C, 10% DMSO for meta- and para-chlorostyrene oxide, chiral GLC. How it is done: Site directed mutagenesis was done as described by Kunkel (Proc. Natl. Acad. Sci. U.S.A., 82, 488-492 (1985)) with uracil-containing single stranded plasmid pEH20 as template (Rink et al.). Tyr^215 was mutated to Phe with the primer 5'-[…]-3' (mutated codon underlined). In order to confirm the mutation, the whole gene was sequenced as described in Rink et al.
as §1

The test system of experiment [3] is epoxide hydrolase from Agrobacterium radiobacter AD1, Tyr152Phe mutant. In words: Stereoselective hydrolysis (kinetic resolution) of racemic styrene oxide with Tyr152Phe mutant. Particulars: as Example III (5 mM, Tris buffer 50 mM pH9, 30°C).

Regarding `O=[N+]([O-])c1ccc(C2CO2)cc1` (racemic) [P-NO2-SO], the E-value is recorded as 100 in experiment [1] and greater than 200 in experiment [2].

As for `c1ccc(C2CO2)cc1` (racemic) [SO, styrene oxide], the E-value in experiment [1] is 16; in experiment [3], no less than 40; in experiment [2], 30.

Turning to `Clc1cccc(C2CO2)c1` (stereo not drawn) [M-Cl-SO, meta-chlorostyrene oxide], the E-value in experiment [1] amounted to 6.5; in experiment [2], 13.

In the case of `Clc1ccc(C2CO2)cc1` (stereo not drawn) [P-Cl-SO, para-chlorostyrene oxide], the E-value amounted to 32 in experiment [1] and 130 in experiment [2].
